The subject of the first assay is P388. The assay can be described thus: In vitro rate of inhibition of P388 tumor cell growth at 10E-7 mol/L. It is filed as functional, Mus musculus. The settings on record: at 0.1 µM.
Turning to `COc1ccccc1C(=O)N1N=C(c2ccccc2)NN=C1c1ccccc1`, the Rate of inhibition came out at 0.8%.
Still for that read-out and setting: in the case of `CCCC1=NN(C(=O)OC2CCCCC2)C(CCC)N=N1` (stereo not given) it was 44.8%; in that of `Clc1ccccc1-c1nnc(-c2ccccc2Cl)nn1` [CLOFENTEZINE], 14.6%.
The same measure, in the same setting: in the case of `CC1=NN(C(=O)Nc2cc(Cl)cc(Cl)c2)C(C)=NN1C(=O)Nc1cc(Cl)cc(Cl)c1` it was 0%.
Same read-out and setting: in the case of `CC(=O)N1NC(C)N(C(C)=O)NC1C` (stereo not given) it was 0%; in that of `COC(=O)N1N=C(C)N=NC1C` (stereo not given), 11.3%; in that of `COc1cc(NC(=O)N2N=C(C)N(C(=O)Nc3cc(OC)cc(OC)c3)N=C2C)cc(OC)c1`, 90.7%.
Compound `CC1=NN(C(=O)NCc2ccccc2)C(C)=NN1C(=O)NCc1ccccc1` showed a Rate of inhibition of 22%.
The same measure, in the same setting: in the case of `CC1=NN(C(=O)Oc2ccccc2)C(C)N=N1` (stereo not given) it was 1.2%.

A further assay concerns P388. The assay can be described thus: In vitro rate of inhibition of P388 tumor cell growth at 10E-5 mol/L. The settings on record: at 10 µM. It is filed as functional, Mus musculus.
In the case of `COc1ccccc1C(=O)N1N=C(c2ccccc2)NN=C1c1ccccc1`, the Rate of inhibition came out at 25.2%.
`CCCC1=NN(C(=O)OC2CCCCC2)C(CCC)N=N1` (stereo not given) yielded a Rate of inhibition of 33.6%.
Still for that read-out and setting: in the case of `Clc1ccccc1-c1nnc(-c2ccccc2Cl)nn1` [CLOFENTEZINE] it was 2.8%.
Same read-out and setting: in the case of `CC1=NN(C(=O)Nc2cc(Cl)cc(Cl)c2)C(C)=NN1C(=O)Nc1cc(Cl)cc(Cl)c1` it was 5.9%; in that of `CC(=O)N1NC(C)N(C(C)=O)NC1C` (stereo not given), 0.1%; in that of `COC(=O)N1N=C(C)N=NC1C` (stereo not given), 7.8%.
On the same count and under the same terms, in the case of `COc1cc(NC(=O)N2N=C(C)N(C(=O)Nc3cc(OC)cc(OC)c3)N=C2C)cc(OC)c1` it was 88.8%.
`CC1=NN(C(=O)NCc2ccccc2)C(C)=NN1C(=O)NCc1ccccc1` showed a Rate of inhibition of 57.5%.
Still for that read-out and setting: in the case of `CC1=NN(C(=O)Oc2ccccc2)C(C)N=N1` (stereo not given) it was 27.9%.

In the next assay the test system is A549. The assay can be described thus: In vitro rate of inhibition of A-549 tumor cell growth at 10E-6 mol/L. It is filed as functional, Homo sapiens. The following applies: at 1 µM.
On to `COc1ccccc1C(=O)N1N=C(c2ccccc2)NN=C1c1ccccc1`, for which the Rate of inhibition stood at 4.7%.
As for `CCCC1=NN(C(=O)OC2CCCCC2)C(CCC)N=N1` (stereo not given), the Rate of inhibition amounted to 23.5%.
The same measure, in the same setting: then `Clc1ccccc1-c1nnc(-c2ccccc2Cl)nn1` [CLOFENTEZINE], with 0%; and `CC1=NN(C(=O)Nc2cc(Cl)cc(Cl)c2)C(C)=NN1C(=O)Nc1cc(Cl)cc(Cl)c1`, with 0%.
As to `CC(=O)N1NC(C)N(C(C)=O)NC1C` (stereo not given), the Rate of inhibition stood at 3.6%.
The same measure, in the same setting: then `COC(=O)N1N=C(C)N=NC1C` (stereo not given), with 0%; and `COc1cc(NC(=O)N2N=C(C)N(C(=O)Nc3cc(OC)cc(OC)c3)N=C2C)cc(OC)c1`, with 77.3%; and `CC1=NN(C(=O)NCc2ccccc2)C(C)=NN1C(=O)NCc1ccccc1`, with 81.8%.
On the same count and under the same terms, in the case of `CC1=NN(C(=O)Oc2ccccc2)C(C)N=N1` (stereo not given) it was 0%.

The test system of another assay is A549. The assay can be described thus: In vitro rate of inhibition of A-549 tumor cell growth at 10E-5 mol/L. The following applies: at 10 µM. The assay is classed as functional, Homo sapiens.
Turning to `COc1ccccc1C(=O)N1N=C(c2ccccc2)NN=C1c1ccccc1`, the Rate of inhibition worked out at 72.6%.
Still for that read-out and setting: in the case of `CCCC1=NN(C(=O)OC2CCCCC2)C(CCC)N=N1` (stereo not given) it was 5.2%; in that of `Clc1ccccc1-c1nnc(-c2ccccc2Cl)nn1` [CLOFENTEZINE], 0%; in that of `CC1=NN(C(=O)Nc2cc(Cl)cc(Cl)c2)C(C)=NN1C(=O)Nc1cc(Cl)cc(Cl)c1`, 0%.
For `CC(=O)N1NC(C)N(C(C)=O)NC1C` (stereo not given), the Rate of inhibition was 6%.
Compound `COC(=O)N1N=C(C)N=NC1C` (stereo not given) registered a Rate of inhibition of 19.6%.
On the same count and under the same terms, then `COc1cc(NC(=O)N2N=C(C)N(C(=O)Nc3cc(OC)cc(OC)c3)N=C2C)cc(OC)c1`, with 79.3%.
The same measure, in the same setting: then `CC1=NN(C(=O)NCc2ccccc2)C(C)=NN1C(=O)NCc1ccccc1`, with 82.3%; and `CC1=NN(C(=O)Oc2ccccc2)C(C)N=N1` (stereo not given), with 0%.

The test system of the next assay is A549. The assay can be described thus: In vitro rate of inhibition of A-549 tumor cell growth at 10E-8 mol/L. The following applies: at 0.01 µM. The assay is classed as functional, Homo sapiens.
Compound `COc1ccccc1C(=O)N1N=C(c2ccccc2)NN=C1c1ccccc1` displayed a Rate of inhibition of 0%.
Still for that read-out and setting: in the case of `CCCC1=NN(C(=O)OC2CCCCC2)C(CCC)N=N1` (stereo not given) it was 1%.
`Clc1ccccc1-c1nnc(-c2ccccc2Cl)nn1` [CLOFENTEZINE] had a Rate of inhibition of 0%.
Regarding `CC1=NN(C(=O)Nc2cc(Cl)cc(Cl)c2)C(C)=NN1C(=O)Nc1cc(Cl)cc(Cl)c1`, the Rate of inhibition is listed as 0%.
Still for that read-out and setting: then `CC(=O)N1NC(C)N(C(C)=O)NC1C` (stereo not given), with 3.2%; and `COC(=O)N1N=C(C)N=NC1C` (stereo not given), with 0%.
The same measure, in the same setting: then `COc1cc(NC(=O)N2N=C(C)N(C(=O)Nc3cc(OC)cc(OC)c3)N=C2C)cc(OC)c1`, with 26.1%.
Still for that read-out and setting: in the case of `CC1=NN(C(=O)NCc2ccccc2)C(C)=NN1C(=O)NCc1ccccc1` it was 14.1%; in that of `CC1=NN(C(=O)Oc2ccccc2)C(C)N=N1` (stereo not given), 0%.

The test system of a further assay is P388. Put plainly: In vitro rate of inhibition of P388 tumor cell growth at 10E-8 mol/L. The assay is classed as functional, Mus musculus. The settings on record: at 0.01 µM.
`COc1ccccc1C(=O)N1N=C(c2ccccc2)NN=C1c1ccccc1` displayed a Rate of inhibition of 0%.
Still for that read-out and setting: then `CCCC1=NN(C(=O)OC2CCCCC2)C(CCC)N=N1` (stereo not given), with 4.5%; and `Clc1ccccc1-c1nnc(-c2ccccc2Cl)nn1` [CLOFENTEZINE], with 12.6%; and `CC1=NN(C(=O)Nc2cc(Cl)cc(Cl)c2)C(C)=NN1C(=O)Nc1cc(Cl)cc(Cl)c1`, with 0%.
Still for that read-out and setting: then `CC(=O)N1NC(C)N(C(C)=O)NC1C` (stereo not given), with 0%; and `COC(=O)N1N=C(C)N=NC1C` (stereo not given), with 5.7%; and `COc1cc(NC(=O)N2N=C(C)N(C(=O)Nc3cc(OC)cc(OC)c3)N=C2C)cc(OC)c1`, with 73.1%.
The same measure, in the same setting: then `CC1=NN(C(=O)NCc2ccccc2)C(C)=NN1C(=O)NCc1ccccc1`, with 19.6%; and `CC1=NN(C(=O)Oc2ccccc2)C(C)N=N1` (stereo not given), with 0%.

For another assay, the system named is P388. The assay can be described thus: In vitro rate of inhibition of P388 tumor cell growth at 10E-4 mol/L. It is filed as functional, Mus musculus. The following applies: at 100 µM.
Turning to `COc1ccccc1C(=O)N1N=C(c2ccccc2)NN=C1c1ccccc1`, the Rate of inhibition is given as 64.5%.
On the same count and under the same terms, in the case of `CCCC1=NN(C(=O)OC2CCCCC2)C(CCC)N=N1` (stereo not given) it was 44%; in that of `Clc1ccccc1-c1nnc(-c2ccccc2Cl)nn1` [CLOFENTEZINE], 8.2%.
Consider `CC1=NN(C(=O)Nc2cc(Cl)cc(Cl)c2)C(C)=NN1C(=O)Nc1cc(Cl)cc(Cl)c1`, for which the Rate of inhibition was 30.6%.
Still for that read-out and setting: in the case of `CC(=O)N1NC(C)N(C(C)=O)NC1C` (stereo not given) it was 14.5%; in that of `COC(=O)N1N=C(C)N=NC1C` (stereo not given), 60.5%.
`COc1cc(NC(=O)N2N=C(C)N(C(=O)Nc3cc(OC)cc(OC)c3)N=C2C)cc(OC)c1` yielded a Rate of inhibition of 94.4%.
Turning to `CC1=NN(C(=O)NCc2ccccc2)C(C)=NN1C(=O)NCc1ccccc1`, the Rate of inhibition was 92.8%.
On the same count and under the same terms, in the case of `CC1=NN(C(=O)Oc2ccccc2)C(C)N=N1` (stereo not given) it was 85.3%.

The test system of the next assay is P388. Put plainly: In vitro rate of inhibition of P388 tumor cell growth at 10E-6 mol/L. The assay is classed as functional, Mus musculus. The following applies: at 1 µM.
As for `COc1ccccc1C(=O)N1N=C(c2ccccc2)NN=C1c1ccccc1`, the Rate of inhibition turned out to be 7.4%.
Compound `CCCC1=NN(C(=O)OC2CCCCC2)C(CCC)N=N1` (stereo not given) gave a Rate of inhibition of 38.3%.
On the same count and under the same terms, then `Clc1ccccc1-c1nnc(-c2ccccc2Cl)nn1` [CLOFENTEZINE], with 5.6%; and `CC1=NN(C(=O)Nc2cc(Cl)cc(Cl)c2)C(C)=NN1C(=O)Nc1cc(Cl)cc(Cl)c1`, with 1.9%.
Still for that read-out and setting: then `CC(=O)N1NC(C)N(C(C)=O)NC1C` (stereo not given), with 4.3%; and `COC(=O)N1N=C(C)N=NC1C` (stereo not given), with 0%; and `COc1cc(NC(=O)N2N=C(C)N(C(=O)Nc3cc(OC)cc(OC)c3)N=C2C)cc(OC)c1`, with 88.9%.
As to `CC1=NN(C(=O)NCc2ccccc2)C(C)=NN1C(=O)NCc1ccccc1`, the Rate of inhibition stood at 50.3%.
The same measure, in the same setting: then `CC1=NN(C(=O)Oc2ccccc2)C(C)N=N1` (stereo not given), with 13.6%.

In the next assay the test system is A549. The assay can be described thus: In vitro rate of inhibition of A-549 tumor cell growth at 10E-4 mol/L. The settings on record: at 100 µM. The assay is classed as functional, Homo sapiens.
As to `COc1ccccc1C(=O)N1N=C(c2ccccc2)NN=C1c1ccccc1`, the Rate of inhibition is reported as 90.9%.
Still for that read-out and setting: in the case of `CCCC1=NN(C(=O)OC2CCCCC2)C(CCC)N=N1` (stereo not given) it was 25.8%; in that of `Clc1ccccc1-c1nnc(-c2ccccc2Cl)nn1` [CLOFENTEZINE], 0%.
In turn, `CC1=NN(C(=O)Nc2cc(Cl)cc(Cl)c2)C(C)=NN1C(=O)Nc1cc(Cl)cc(Cl)c1` registered a Rate of inhibition of 42%.
For `CC(=O)N1NC(C)N(C(C)=O)NC1C` (stereo not given), the Rate of inhibition turned out to be 68.5%.
Compound `COC(=O)N1N=C(C)N=NC1C` (stereo not given) yielded a Rate of inhibition of 75.9%.
Same read-out and setting: then `COc1cc(NC(=O)N2N=C(C)N(C(=O)Nc3cc(OC)cc(OC)c3)N=C2C)cc(OC)c1`, with 87.5%; and `CC1=NN(C(=O)NCc2ccccc2)C(C)=NN1C(=O)NCc1ccccc1`, with 64.4%.
On the same count and under the same terms, then `CC1=NN(C(=O)Oc2ccccc2)C(C)N=N1` (stereo not given), with 32.1%.

A further assay has as its system A549. Put plainly: In vitro rate of inhibition of A-549 tumor cell growth at 10E-7 mol/L. The assay is classed as functional, Homo sapiens. The following applies: at 0.1 µM.
In turn, `COc1ccccc1C(=O)N1N=C(c2ccccc2)NN=C1c1ccccc1` yielded a Rate of inhibition of 0%.
On the same count and under the same terms, then `CCCC1=NN(C(=O)OC2CCCCC2)C(CCC)N=N1` (stereo not given), with 18.1%; and `Clc1ccccc1-c1nnc(-c2ccccc2Cl)nn1` [CLOFENTEZINE], with 0%.
Still for that read-out and setting: then `CC1=NN(C(=O)Nc2cc(Cl)cc(Cl)c2)C(C)=NN1C(=O)Nc1cc(Cl)cc(Cl)c1`, with 0%; and `CC(=O)N1NC(C)N(C(C)=O)NC1C` (stereo not given), with 7.4%; and `COC(=O)N1N=C(C)N=NC1C` (stereo not given), with 0%.
Still for that read-out and setting: in the case of `COc1cc(NC(=O)N2N=C(C)N(C(=O)Nc3cc(OC)cc(OC)c3)N=C2C)cc(OC)c1` it was 75%.
As to `CC1=NN(C(=O)NCc2ccccc2)C(C)=NN1C(=O)NCc1ccccc1`, the Rate of inhibition amounted to 32%.
On to `CC1=NN(C(=O)Oc2ccccc2)C(C)N=N1` (stereo not given), for which the Rate of inhibition amounted to 0%.

(Values after ChEMBL document CHEMBL1147590, “Synthesis and antitumor activity of s-tetrazine derivatives” (Bioorg Med Chem Lett, 2004).)
